Patent publication US8530493B2, “Indolopyridines as Eg5 kinesin modulators” (4SC AG, priority 2006, dated 2013)

How the values were obtained:
[1] = system: RKO p27 induced (arrested) colon adenocarcinoma cells; test: Alamar Blue cell viability assay, RKO p27 induced by Ponasterone A (arrested); assay type: cell-based; conditions: Homo sapiens, RKOp27, Table B1, cells arrested by Ponasterone A-induced p27Kip1, 72 hours, read-out: −log EC50 RKO p27 induced (arrested) (converted)
In short: (§1)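 RKOp21 or RKOp27 subclones in DMEM/10% FCS with 10 μM Ponasterone A to induce p21/p27 arrest, seeded 24 h before compound; triplicate 72 h exposure at 37 °C. Alamar Blue fluorescence (544/590 nm) as % of untreated (1% DMSO) cells; EC50 from dose-response curves, reported as −log EC50 (mol/l).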

[2] = system: RKO p27 uninduced (proliferating) colon adenocarcinoma cells; test: Alamar Blue cell viability assay, RKO p27 uninduced (proliferating); assay type: cell-based; conditions: Homo sapiens, RKOp27, Table B1, anti-proliferative/cytotoxic activity, 72 hours, read-out: −log EC50 RKO p27 uninduced (proliferating) (converted)
In short: (§2)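 Viability read by Alamar Blue fluorescence (ex 544, em 590 nm), normalised to untreated wells, after 72 h, 37° C, 5% CO2 compound exposure in triplicate. Cells were uninduced (no Ponasterone A), proliferating RKO colon carcinoma p27 or p21 subclones in DMEM with 10% FCS; values are −log EC50 (mol/l).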

[3] = system: RKO p27 or p21 uninduced (proliferating) colon adenocarcinoma cells; test: Alamar Blue cell viability assay, RKO p27 or p21 uninduced (proliferating); assay type: cell-based; conditions: Homo sapiens, RKOp27, Table B2, anti-proliferative/cytotoxic activity, 72 hours, read-out: −log EC50 RKO p27 or p21 uninduced (proliferating) (converted)
In short: as §2

[4] = system: RKO p27 or p21 induced (arrested) colon adenocarcinoma cells; test: Alamar Blue cell viability assay, RKO p27 or p21 induced (arrested); assay type: cell-based; conditions: Homo sapiens, RKOp27, Table B2, cells arrested by Ponasterone A, 72 hours, read-out: −log EC50 RKO p27 or p21 induced (arrested) (converted)
In short: as §1

melting point [°C] | EC50 [1] [µM] | Compound | EC50 [2] [µM] | EC50 [3] [µM] | EC50 [4] [µM]
283 to 286 | ≥ 3.16 | CN(C)CCN1C(=O)N2[C@H](c3cccc(O)c3)c3[nH]c4ccc(Cl)cc4c3C[C@@]2(C)C1=O (racemic) [Example 9, (3aSR,10RS)-6-Chloro-2-(2-dimethylamino-ethyl)-10-(3-hydroxy-phenyl)-3a-methyl-3a,4,9,10-tetrahydro-2,9,10a-triaza-cyclopenta[b]fluorene-1,3-dione] | ≤ 0.0398 | – | –
321 to 324 | ≥ 3.16 | COc1ccc2[nH]c3c(c2c1)C[C@@]1(C)C(=O)N(CCn2ccnc2)C(=O)N1[C@@H]3c1cccc(O)c1 (racemic) [Example 13, (3aSR,10RS)-10-(3-Hydroxy-phenyl)-2-(2-imidazol-1-yl-ethyl)-6-methoxy-3a-methyl-3a,4,9,10-tetrahydro-2,9,10a-triaza-cyclopenta[b]fluorene-1,3-dione] | 0.0398 to 0.251 | – | –
228 to 231 | ≥ 3.16 | COc1ccc2[nH]c3c(c2c1)C[C@@]1(C)C(=O)N(CCCN(C)C)C(=O)N1[C@@H]3c1cccc(O)c1 (racemic) [Example 15, (3aSR,10RS)-2-(3-Dimethylamino-propyl)-10-(3-hydroxy-phenyl)-6-methoxy-3a-methyl-3a,4,9,10-tetrahydro-2,9,10a-triaza-cyclopenta[b]fluorene-1,3-dione] | ≤ 0.0398 | – | –

Continued, molecule first:

Compound | melting point [°C] | EC50 [1] [µM] | EC50 [2] [µM] | EC50 [3] [µM] | EC50 [4] [µM]
COc1ccc2[nH]c3c(c2c1)C[C@@]1(C)C(=O)N(CCN2CCOCC2)C(=O)N1[C@@H]3c1cccc(O)c1 (racemic) [Example 10, (3aSR,10RS)-10-(3-Hydroxy-phenyl)-6-methoxy-3a-methyl-2-(2-morpholin-4-yl-ethyl)-3a,4,9,10-tetrahydro-2,9,10a-triaza-cyclopenta[b]fluorene-1,3-dione] | 260 to 263 | ≥ 3.16 | ≤ 0.0398 | – | –
COc1ccc2[nH]c3c(c2c1)C[C@@]1(C)C(=O)N(CCN2CCCC2)C(=O)N1[C@@H]3c1cccc(O)c1 (racemic) [Example 11, (3aSR,10RS)-10-(3-Hydroxy-phenyl)-6-methoxy-3a-methyl-2-(2-pyrrolidin-1-yl-ethyl)-3a,4,9,10-tetrahydro-2,9,10a-triaza-cyclopenta[b]fluorene-1,3-dione] | 252 to 255 | ≥ 3.16 | ≤ 0.0398 | – | –
COc1ccc2[nH]c3c(c2c1)C[C@@]1(C)C(=O)N(CCN2CCN(C)CC2)C(=O)N1[C@@H]3c1cccc(O)c1 (racemic) [Example 12, (3aSR,10RS)-10-(3-Hydroxy-phenyl)-6-methoxy-3a-methyl-2-[2-(4-methyl-piperazin-1-yl)ethyl]-3a,4,9,10-tetrahydro-2,9,10a-triaza-cyclopenta[b]fluorene-1,3-dione] | 224 to 227 | ≥ 3.16 | 0.0398 to 0.251 | – | –
CCOc1ccc2[nH]c3c(c2c1)C[C@@]1(C)C(=O)N(CCBr)C(=O)N1[C@@H]3c1cccc(O)c1 (racemic) [Example 22, (3aSR,10RS)-2-(2-Bromo-ethyl)-6-ethoxy-10-(3-hydroxy-phenyl)-3a-methyl-3a,4,9,10-tetrahydro-2,9,10a-triaza-cyclopenta[b]fluorene-1,3-dione] | 250 to 252 | ≥ 3.16 | 0.0398 to 0.251 | ≤ 0.0398 | ≥ 0.316
COc1ccc2[nH]c3c(c2c1)C[C@@]1(C)C(=O)N(CCBr)C(=O)N1[C@@H]3c1cccc(O)c1 (racemic) [Example 24, (3aSR,10RS)-2-(2-Bromo-ethyl)-10-(3-hydroxy-phenyl)-6-methoxy-3a-methyl-3a,4,9,10-tetrahydro-2,9,10a-triaza-cyclopenta[b]fluorene-1,3-dione] | 299 to 302 | ≥ 3.16 | 0.0398 to 0.251 | – | –
